# In ChEMBL document CHEMBL1146450, “Ponicidin and oridonin are responsible for the antiangiogenic activity of Rabdosia rubescens, a constituent of the herbal supplement PC SPES” (J Nat Prod, 2004):
# Active and inactive are the calls of the source. The rule behind the calls is not given here.
# Columns and labels:
# [1] = system: HMEC-1; assay: Antiangiogenic activity in HMEC1 cells assessed as inhibition of capillary-like network formation at 1.5 ug/ml after 18 hrs; format: functional, cell-based; conditions: Homo sapiens
# [2] = system: HMEC-1; assay: Antiangiogenic activity in HMEC1 cells assessed as inhibition of capillary-like network formation at 2.5 ug/ml after 18 hrs; format: functional, cell-based; conditions: Homo sapiens
# [3] = Cytotoxicity against HMEC1 cells by resazurin assay; format: cell-based; conditions: Homo sapiens, HMEC-1
SMILES,Activity [1],Activity [2],IC50 [3]
C=C1C(=O)[C@@]23[C@@H]4OC5O[C@@]2(O)[C@@H](O)[C@@H]2C(C)(C)CC[C@@H](O)[C@]52[C@@H]3CC[C@@H]14,Active,Active,
C=C1C(=O)[C@]23[C@H](O)[C@H]1CC[C@H]2[C@@]12CO[C@]3(O)[C@@H](O)[C@@H]1C(C)(C)CC[C@@H]2O [ORIDONIN],Active,Active,> 4 µg/mL
